ChEMBL document CHEMBL2434905, “2-Amino-6-chloro-3,4-dihydroquinazoline: A novel 5-HT3 receptor antagonist with antidepressant character” (Bioorg Med Chem Lett, 2013)
Active and inactive are the calls of the source. The rule behind the calls is not given here.

Experiments:
Mus musculus = experiment: Antidepressant activity in ICR mouse assessed as immobility time at 20 mg/kg, ip by tail suspension test; format: functional, organism-based; set-up: dose 20 mg/kg
[1] = target: T1, 5-hydroxytryptamine receptor 3A (Homo sapiens, UniProt P46098); experiment: Displacement of [3H]GR65630 from 5-HT3 receptor (unknown origin) expressed in mouse/rat NG108-15 cells after 30 mins by liquid scintillation counting analysis; format: cell-based
T1 sequence (P46098 whole entry): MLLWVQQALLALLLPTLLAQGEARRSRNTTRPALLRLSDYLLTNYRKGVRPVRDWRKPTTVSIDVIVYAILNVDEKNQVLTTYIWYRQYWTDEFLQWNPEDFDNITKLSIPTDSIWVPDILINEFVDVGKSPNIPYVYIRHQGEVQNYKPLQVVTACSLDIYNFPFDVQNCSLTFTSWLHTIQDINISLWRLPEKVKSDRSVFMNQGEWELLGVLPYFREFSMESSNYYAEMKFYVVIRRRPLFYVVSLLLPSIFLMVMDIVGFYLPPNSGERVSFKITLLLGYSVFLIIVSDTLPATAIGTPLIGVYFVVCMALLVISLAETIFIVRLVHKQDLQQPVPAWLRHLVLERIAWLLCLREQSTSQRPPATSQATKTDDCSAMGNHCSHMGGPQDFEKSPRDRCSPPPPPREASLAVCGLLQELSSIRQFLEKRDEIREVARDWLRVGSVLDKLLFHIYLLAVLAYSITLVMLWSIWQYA

| Structure (SMILES) | Activity (Mus musculus) | Ki [1] |
| --- | --- | --- |
| CNCCCN1c2ccccc2CCc2ccccc21 | Active |  |
| NC(N)=Nc1cccc(Cl)c1 |  | 32 nM |
